The results in this text go back to patent US12263156B2, “Use of small molecule inhibitors of the BfrB:Bfd interaction in biofilms” (priority 2020, dated 2025).

Series [1] has as its system P. aeruginosa clinical isolate PA_1081725. The class given is cell-based, Pseudomonas aeruginosa. The settings on record: 2-day old pellicles, 24 h, 1.2× the IC50 (KM-5-25 80 μM; KM-5-66 50 μM). On the procedure:
(§1) Pellicle biofilms were grown as described above.
(§2) To investigate whether the compounds are also active against other strains of P. aeruginosa, pellicles of several clinical isolates from JMI Laboratories were cultured. […] To gain a broader understanding of the potential activity spectrum of the BfrB-Bfd inhibitors against P. aeruginosa strains, BLASTp^62 was used to find homologs of BfrB and Bfd sequences in the >4,400 P. aeruginosa genomes in the Pseudomonas Genome Database.^63 The results reveal two important facts: (i) The bfrB and bfd genes are adjacent to one another in all the P. aeruginosa strains, (ii) There is an extremely high level of conservation among the bfd and bfrB sequences. These findings evidence that the compounds of the present technology are broadly active against P. aeruginosa.

Series [2] concerns P. aeruginosa clinical isolate PA_1076058. The class given is cell-based, Pseudomonas aeruginosa. The settings on record: 2-day old pellicles, 24 h, 1.2× the IC50 (KM-5-25 80 μM; KM-5-66 50 μM). On the procedure:
as §1, §2

The next series concerns P. aeruginosa PAO1. The series is described as follows: Half maximal inhibitory concentration (IC50) of planktonic growth, CFU/mL enumeration. Type of series: cell-based, Pseudomonas aeruginosa. The settings on record: for IC50: Pseudomonas aeruginosa, PAO1, planktonic growth, 24 h, 35° C, defined media, 2% DMSO, average ± SD of three experiments. As for the experimental part:
Chemicals were purchased from Fisher Scientific (Waltham, MA) unless otherwise stated. P. aeruginosa PAO1 was obtained from the University of Washington Genome center.^80 The PAO1 strain expressing enhanced yellow fluorescent protein (EYFP) was prepared as described in Soldano, A.; Yao, H.; Chandler, J. R.; Rivera, M. (2020) Inhibiting Iron Mobilization from Bacterioferritin in Pseudomonas aeruginosa Impairs Biofilm Formation Irrespective of Environmental Iron Availability. ACS Infect. Dis. 6, 447-458. 10.1021/acsinfecdis.9b00398.^26 Clinical isolates of P. aeruginosa were purchased from JMI Laboratories (North Liberty, IA, USA). […] Starter cultures of P. aeruginosa PAO1 in 5 mL LB media were grown for 13 hours in 50 mL conical tubes at 37° C. and 220 rpm. For biofilm experiments, a EYFP-expressing P. aeruginosa strain was routinely grown in Pseudomonas Isolation (PI) media (20 g L^−1 peptone, 0.3 g L^−1 MgCl2·6H O, 10 g L^−1 K2SO4, 25 mg L^−1 irgasan, and 20 mL L^−1 glycerol, pH 7.0). Starter cultures were grown from a single colony at 37° C. and shaking at 220 rpm for 14 hours in 5 mL PI media supplemented with 10 μM Fe. Pellicle biofilms were cultured for 48 hours at 30° C. in PI media supplemented with 20 μM Fe. Surface-attached biofilms were cultured in AB minimal media^81 supplemented with trace metals [0.15 μM (NH4)2MoO4, 3 μM CuSO4, 2 μM Co(NO3)2, 9.4 μM Na2B4O7, and 7.6 μM ZnSO4], 3 mM glucose and 15 μM Fe. Iron supplementation was carried out by addition of a small volume of filter-sterilized 10 mM (NH4)2Fe(SO4)2 (pH˜2.0) solution. […]; IC50 values (Table 1 below) were determined as reported previously^25 with small modifications. In brief: precultures of P. aeruginosa PAO1 (5 mL) were grown in LB media for 13 hours at 37° C. and 220 rpm in 50 mL conical tubes (VWR International, PA). The cells were centrifuged for 5 min at 4,000 rpm and 4° C., washed two times and then diluted in buffer (100 mM KH2PO4 and 15 mM (NH4)2SO4 to an optical density at 600 nm (OD600) of 0.1. A small volume of compound stock solution (10 mM) was transferred to a microcentrifuge tube, initially diluted with DMSO to 20 μL, and then diluted to 1 mL with preculture cell suspension in defined media with OD600=0.0001, so the final DMSO concentration is 2%. The resultant cell suspension (200 μL) was transferred to a clear-bottom polystyrene 96-well plate (VWR International, PA) covered with a lid and incubated at 35° C. and 205 cpm for 24 h in a Synergy H1 microplate reader (Biotek Instruments Inc., Winooski, VT). The cell cultures were serially diluted and then plated on PI Agar (PIA; BD Biosciences, San Jose, CA) plates for enumeration of viable cells (CFU/mL). The % growth was calculated from the ratio CFU/mL(treated)/CFU/mL(untreated control). To calculate the IC50 values, the % growth was plotted as a function of compound concentration, expressed as log[compound] (μM), and fitted to the 4-parameter logistic model describing the sigmoid-shaped response pattern (equation 1),^83 where b is the slope factor, max is the upper asymptote (plateau), and min is the lower asymptote. Values are the average and standard deviation from three independent experiments.

Series [3] deals with EYFP-expressing P. aeruginosa PAO1 biofilms. Put plainly: Flow cell biofilm assay (CLSM imaging, COMSTAT biomass). Type of series: cell-based, Pseudomonas aeruginosa. The settings on record: 3-day old biofilms, 24 h; KM-5-25 40 and 80 μM, KM-5-66 15, 30 and 50 μM. As for the experimental part:
ACS Infect. Dis. […] The experimental shear stress was 0.14-dyn/cm^2 (shear rate=14 s^−1, pressure=7.1 mbar, flow rate=0.4 mL/min) and the switch time was set to 540 s. […] During biofilm growth and challenge with antibacterial, the culture medium in the reservoirs was removed every 12 hours and replaced with fresh pre-warmed medium. […] The biofilms were imaged with the aid of a Leica TCS SP8 confocal microscope (Leica Microsystems, Germany) using a HC PL apo CS2 63×/1.4 oil objective. […] Image stacks were acquired with a z-step size of 0.3 μm at randomly chosen positions. The Leica Application Suite X (LAS-X) software was used for image stack processing.^54 Quantitative analysis of biofilm biomass was performed using the COMSTAT computer program^54 and the Otsu method of automatic thresholding.^85
The treated biofilms were counterstained with the cell impermeable fluorescent nucleic acid dye Sytox Red and then imaged with the aid of confocal laser scanning microscopy (CLSM).

The target of the next series is BfrB (apo-BfrB) (Pseudomonas aeruginosa (strain ATCC 15692 / DSM 22644 / CIP 104116 / JCM 14847 / LMG 12228 / 1C / PRS 101 / PAO1), UniProt Q9HY79). Put plainly: Fluorescence polarization measurement of dissociation constant (Kd). To be noted: for Kd: 100 mM potassium phosphate buffer pH 7.6, 1 mM TCEP, 0.5% DMSO, average ± SD. The class given is binding. On the procedure:
Values were obtained in 100 mM potassium phosphate buffer (pH 7.6) containing 1 mM TCEP and 0.5% DMSO. The initial concentrations of KM-5-25 and KM-5-66 were 5 μM. The Kd values are the average and standard deviation from three independent measurements. […] The IC50 values are the average and the standard derivations from three independent experiments.
Prior to testing the effect that the 4-substituted isoindoline-1,3-dione derivatives might exert on P. aeruginosa cells, the strength of their interaction with BfrB was evaluated in vitro with a fluorescence polarization assay developed based on the intrinsic fluorescence of the isoindoline-1,3-dione moiety.
In general terms: In fluorescence polarisation assays a small probe gives low polarisation when free and higher when bound to something large.

As a reminder, the IC50 is the concentration that gives 50% inhibition. For orientation: Kd means a measure of binding affinity in units of concentration. Lower therefore signals higher affinity. Regarding `O=C1NC(=O)c2c(NCc3cc(Cl)ccc3O)cccc21` [KM-5-25], the “reduction of viable cells” value in series [1] and in series [2] was “approximately 80%” each time. Also, in the series on P. aeruginosa PAO1, the IC50 came out at 69 ± 7 µM. Further, the “fold lower IC50 relative to JAG-5-7” value in the series with P. aeruginosa PAO1 (relative to JAG-5-7) is roughly 2 fold. Besides, in series [3], the “killing of flow cell biofilm cells (CLSM images)” value is “concentration dependent manner”. In addition, at BfrB (apo-BfrB), the Kd worked out at 4000 ± 600 nM. For the same compound, the “fold higher binding affinity for BfrB relative to JAG-5-7” value on BfrB (apo-BfrB) (relative to JAG-5-7) was roughly 2 fold.
As for `O=C1NC(=O)c2c(NCCCc3cc(O)cc(Cl)c3)cccc21` [KM-5-66], the “reduction of viable cells” value in series [1] and in series [2] was “approximately 80%” in each case. For the same compound, in the series on P. aeruginosa PAO1, the IC50 was 42 ± 6 µM. In the series with P. aeruginosa PAO1 (relative to compound 16), the “fold decrease of IC50 relative to compound 16” value was roughly 3 fold. Further, the “killing of flow cell biofilm cells (CLSM images)” value in series [3] is listed as “concentration dependent manner”. This compound also displayed a Kd on BfrB (apo-BfrB) of 350 ± 50 nM. The “fold decrease of Kd relative to compound 16” value at BfrB (apo-BfrB) (relative to compound 16) is recorded as roughly 4 fold.
